Experimental data as given in patent US6238693A, “Transdermal administration of fenoldopam” (priority 1999, dated 2001).
Counter-ions that a name gives are not always drawn.

Columns and labels:
[1] = tested on: guinea pigs; assay: Dermal sensitization challenge study (definitive study); assay type: in vivo, guinea pig; details: 40 mg/mL challenge
Experimental: Based on the results from this initial phase of dermal sensitization studies, a definitive challenge dermal sensitivity study was conducted, as described in Example 3. Briefly, thirty animals were divided into three test groups of 10 animals each. The animals in Group 5 were treated with fenoldopam mesylate, the animals in Group 6 with R-fenoldopam mesylate and the animals in Group 7 were treated with vehicles alone as a control.
All animals were initially treated with intradermal injections of the test compound, e.g., fenoldopam mesylate (Group 5) or R-fenoldopam (Group 6), in a 1:1 mixture of propylene glycol:water or in a mixture of Freund's Complete Adjuvent (FCA) in propylene glycol:water. The drug concentration in these vehicle mixtures was 40 mg/mL (see Table 4 in Example 3). The animals were also treated with FCA in water alone. The animals in Group 7 received the same three formulations, except for the absence of fenoldopam.
One week after the intradermal injections, each of the test formulations was applied topically to the injection site. The topical application, in the form of a saturated patch of filter paper, was left in place for 48 hours.
Two weeks after the topical application, the animals in groups 5 and 6 received a challenge dose of 40 mg/mL of the test compound in PG:water, applied topically to a naive site. On the opposing side of the animal, the vehicle alone (PG:water) was applied. The animals in Group 7 received the vehicle alone on both sides. 24 hours after the topical challenge dose, the site was scored for dermal sensitization using the four-point scale given above.
Thirty guinea pigs were obtained and cared for as set forth in Example 2.
On Day 1 of the study, an area approximately 4 cm×6 cm was clipped with an electric clipper along the midline over the shoulder region of each animal in the test and control groups. Two rows of three 0.1 mL intradermal injections were made within the boundaries of a 2 cm×4 cm area, one row on each side of the midline. The injections in each row were as follows: at the anterior site, the animal received 0.1 mL of the prepared Freund's Complete Adjuvent (FCA) solution (Groups 5, 6 and 7); at the medial site, the animals received 0.1 mL of the respective prepared test material (Groups 5 and 6) or vehicle control (Group 7); and at the posterior site, the animals received 0.1 mL of the respective test material (drug in PG:water) further mixed with FCA solution (Groups 5 and 6) or a 1:1 dilution of the PG:water vehicle control in FCA.
On Day 7, the area of intradermal injection on each animal in Groups 5, 6 and 7 was clipped free of hair with an electric clipper. The clipped area was treated with 10% w/w sodium lauryl sulfate in petrolatum. […]

[2] = tested on: guinea pigs; details: guinea pig, in vivo
Experimental: (§1) Dermal sensitization studies in guinea pigs were done to assess the contact sensitization of fenoldopam mesylate and of R-fenoldopam mesylate, the active enantiomer, when administered topically and intradermally. Each of the drugs, the fenoldopam mesylate and the R-fenoldopam mesylate, were administered to the animals from a 50:50 mixture of propylene glycol/water, at drug concentrations of 40 mg/mL, 30 mg/mL, 20 mg/mL, and 10 mg/mL.
As described in Example 2, sixteen animals were divided into 4 groups of 4 animals each. The first group of 4 animals (Group 1) were treated with a topical application of fenoldopam mesylate at the four concentrations. Each animal, after having the hair removed from its back and sides, received each of the concentrations applied at four separate sites. The animals in Group 2 were similarly treated, except with R-fenoldopam. After 24 hours of exposure to the test material, the application site was scored on a four-point scale for dermal reactions (0=no reaction, 1=moderate mild redness, 2=moderate and diffuse redness, 3=intense redness and swelling). […]
For the topical application, the test materials were placed on 2 cm×2 cm pieced of filter paper to saturation and allowed to remain in place on the animal for 24 hours. […] The sites were scored on the following four-point scale for dermal reactions at approximately 24 and 48 hours after patch removal: […]

[3] = tested on: guinea pigs; details: guinea pig, in vivo; remark: listed apart in the source
Experimental: as §1
Dermal sensitization was also evaluated following intradermal injection of fenoldopam mesylate and R-fenoldopam at the same concentrations used in the topical screening. As described in Example 2, four animals (Group 3) were treated with […] injections of fenoldopam mesylate at four injection sites, one for each of the four concentrations. Four animals in Group 4 were similarly injected with R-fenoldopam at the four concentrations. 24 hours after injection, the injection sites were scored for dermal reaction on the 4-point scale.
Guinea pigs (strain: CRl (HA)BR) were obtained from Charles River Laboratories. The animals were young adults, weighing between 350-550 g at the start of the study. Each animals was housed individually and fed ad libitum a certified
A stock solution of 50% propylene glycol/50% sterile water mixture was prepared as the control material and for preparation of the test materials.
On each day of testing, a 40 mg/mL fenoldopam mesylate or R-fenoldopam mesylate in 50% propylene glycol/50% sterile water solution was prepared using the stock solution. The 40 mg/mL drug solution was diluted with the stock solution to prepare solutions of 30 mg/mL, 20 mg/mL and 10 mg/mL of both the racemate and the enantiomer. All test materials were used within 8 hours of preparation and were stored at room temperature until administered.
Sixteen guinea pigs were divided into the following groups:
For the intradermal injection, the four animals in Group 3 were treated with intradermal injection of fenoldopam mesylate and the four animals in Group 4 were treated with intradermal injections of R-fenoldopam mesylate. The test materials were administered at concentrations of 40 mg/mL, 30 mg/mL, 20 mg/mL and 10 mg/mL by injecting each at a volume of 0.1 mL into a separate site on the shaved back of the test animal. The areas of intradermal injections were evaluated for dermal irritation on the four-point scale given above at 24 and 48 hours after injection. The test sites were clipped with an electric clipper before the first reading.

[4] = cited from earlier work
[5] = tested on: dopamine type-1 receptors; details: cited from earlier work
[6] = exposure to the atmosphere during storage; cited from earlier work
[7] = cited from earlier work; remark: listed apart in the source
[8] = intravenous infusion, therapeutic dosages

SMILES: Oc1ccc(C2CNCCc3c2cc(O)c(O)c3Cl)cc1 (racemic) [fenoldopam mesylate]
- animals scored as having "scattered mild redness" [1]: 6 of the 10 animals
- dermal sensitization (summary) [1]: moderate dermal sensitization
- Dermal Reactions, topical application [2]: 0
- Dermal Reactions, intradermal injection [3]: 2
- appearance of injection site (footnote) [3]: Whitish in color

SMILES: Oc1ccc(C2CNCCc3c2cc(O)c(O)c3Cl)cc1 (racemic) [racemic fenoldopam]
- average clearance (CL) ([4]; human, in vivo, iv): 2.6 L/min
- half-life (t1/2) ([4]; human, in vivo, iv): 4.6 min

SMILES: Oc1ccc([C@H]2CNCCc3c2cc(O)c(O)c3Cl)cc1 [R-fenoldopam mesylate]
- animals scored as having "scattered mild redness" [1]: 5 of the 10 animals
- dermal sensitization (summary) [1]: moderate dermal sensitization
- Dermal Reactions, topical application [2]: 0
- Dermal Reactions, intradermal injection [3]: 2
- appearance of injection site (footnote) [3]: Whitish in color

SMILES: Oc1ccc([C@H]2CNCCc3c2cc(O)c(O)c3Cl)cc1 [R-fenoldopam]
- biological activity of enantiomer [5]: the activity of the drug is due to the R-enantiomer

SMILES: Oc1ccc([C@@H]2CNCCc3c2cc(O)c(O)c3Cl)cc1 [S-fenoldopam]
- biological activity of enantiomer [5]: relatively inactive

SMILES: Oc1ccc(C2CNCCc3c2cc(O)c(O)c3Cl)cc1 (stereo not shown) [fenoldopam free base]
- oxidation [6]: readily oxidized

SMILES: Oc1ccc(C2CNCCc3c2cc(O)c(O)c3Cl)cc1 (stereo not drawn) [fenoldopam, 6-chloro-2,3,4,5-tetrahydro-l-(4-hydroxyphenyl)-1H-3-benzazepine-7,8-diol]
- blood pressure ([7]; in vivo): decrease in blood pressure
- duration of antihypertensive and renal effects ([7]; in vivo): short lasting
- renal vasodilation, diuresis and natriuresis ([7]; in vivo): renal vasodilation, diuresis and natriuresis
- creatinine clearance, urinary flow and excretion of sodium and potassium [7, 8]: increasing creatinine clearance, urinary flow and excretion of sodium and potassium
- glomerular filtration rate [7, 8]: maintaining glomerular filtration rate
- renal blood flow [7, 8]: increases renal blood flow
- renal vascular resistance [7, 8]: decreases renal vascular resistance
- time to achieve dose-dependent steady-state plasma concentration ([4]; intravenous, about 0.01-1.6 μg/kg/min for up to 48 hours): about 20 minutes
- first-pass metabolism ([4]; via sulfation and glucuronidation): high first-pass metabolism
- dopamine agonism / peripheral vasodilation ([5]; via stimulation of dopamine type-1 receptors): dopamine agonist that causes peripheral vasodilation
